Here are results for 1 sequence from patent US8003348B2, “Method for the mass expression of an antimicrobial peptide by co-expression of a basic antimicrobial peptide and an acidic peptide using a translational coupling system” (Korea Advanced Institute of Science and Technology, priority 2007, dated 2011).

The assay in a line: antimicrobial activity of the recombinant antimicrobial peptide. Format: cell-based. Particulars: recombinant histonin II purified from E. coli BL21(DE3)/pmIF3H, compared with naturally-occurring antimicrobial peptide.

For the sequence “RAGLQFPVGRLLRRLLRRLLR (histonin II peptide) [recombinant antimicrobial peptide]”, the antimicrobial activity result was “substantially the same antimicrobial activity as a naturally-occurring antimicrobial peptide”.
